Test results reported in US20050101542A1, “Combination therapy for controlling appetites” (Regents of the University of California, priority 2002, published 2005).

How the values were obtained:
[1] = Plasma hormone levels by radioimmunoassay; type: in vivo, rat; settings: 20 mg per kg i.p.
Description: Blood chemistry. Plasma β-hydroxybutyrate and glycerol were measured using commercial kits (Sigma, St. Louis, Mo.). Plasma prolactin, corticosterone and luteinizing hormone were quantified by radioimmunoassay (Navarro, et al., Neuroreport, 8:491-496 (1997)).

[2] = Operant responses for food; type: in vivo, rat; settings: at a dose substantially higher than those required to produce hypophagia
Description: Operant responses for food. Rats were trained to lever press for food on a fixed ratio 1 (FR1) schedule of reinforcement, while food-restricted at 20 g of chow per rat per day (Rodriguez de Fonseca, et al., Acta Pharmacol. Sin., 20:1109-1114 (1999)). Once stable responding was achieved, the animals were trained to acquire an FR5, time out 2-min schedule of food reinforcement and kept in limited access to food. When a stable baseline was obtained, the animals were used to test the effects of vehicle or OEA (1, 5 or 20 mg per kg) administered 15 min before lever presentation. Test duration was 60 min.

[3] = tested on: iNOS; test: Transrepression of iNOS expression in mouse jejunum; type: in vivo; settings: jejunum of C57BL/6J mice; OEA or oleic acid 10, Wy-14643 30 mg kg^−1 i.p.
Description: Tissues were stored in RnaLater™ (Ambion), extracted total RNA with TRIzol™ (Invitrogen) and quantified it with Ribogreen™ (Molecular Probes). cDNA was synthesized by using SuperscriptII RNase H-reverse transcriptase (Invitrogen).
Reverse transcription of total RNA (2 μg) was performed using Oligo(dT)12-18 primer (0.2 μg) for 50 min at 42° C. Real Time Quantitative (RTQ) PCR was conducted using an ABI PRISM 7700 sequence detection system (Applied Biosystems). Primer/probe sets were designed using the Primer Express™ software and gene sequences available from the Genebank™ database. Primers and fluorogenic probes were synthesized by TIB (Adelphia). The primer/probe sequences for the mouse genes were:
RNA levels were normalized by using glyceraldehyde 3-phosphate dehydrogenase (GAPDH) as an internal standard. mRNA levels were measured by generating six-point serial standard curves using mouse total RNA. Estimates of relative mRNA abundance (in arbitrary units) were made by using the CT value (Schmittgen et al., 2000). Relative quantifications of RNAs of interest were made by using the 2^ΔCT formula, in which ΔCT was calculated by subtracting the CT value for GAPDH from the CT value for the gene of interest. This formula was validated for each primer/probe set by using six-point serial standard curves.

[4] = Intracerebroventricular OEA on food intake in 24 h food-deprived rats; type: in vivo, rat; settings: for food intake 60 min / food intake 120 min / food intake 240 min: 24 h food-deprived rats
Description: (§1) Feeding experiments. Acute experiments. Food intake was measured in 24-h food-deprived rats (Navarro, et al., J. Neurochem., 67:1982-1991 (1996)), administering drugs 15 min before food presentation. Subchronic experiments. Ad libitum fed rats received vehicle injections for three days. On day four, the animals were divided in two equal groups and gave them daily injections of vehicle or OEA (5 mg per kg at 1900 h) for 7 consecutive days, while measuring body weight, food intake and water intake.

[5] = Conditioned taste aversion; type: in vivo, rat; settings: 20 mg per kg i.p.
Description: Conditioned taste aversion. Rats were water-deprived for 24 h and then accustomed to drink from a graded bottle during a 30-min test period for four days. On day five, water was substituted with a 0.1% saccharin solution and, 30 min later, the animals received injections of vehicle, OEA (20 mg per kg) Or lithium chloride (0.4 M, 7.5 ml per kg). During the following two days, water consumption was recorded over 30-min test periods. The animals were then presented with water or saccharin, and drinking measured.

[6] = target: T1, cannabinoid binding to rat brain membranes (Rattus norvegicus, UniProt P20272); test: Displacement of cannabinoid binding to rat brain membranes; settings: rat brain membranes in vitro
T1 construct: from tissue; host or cells: rat brain membranes
T1 sequence (P20272 whole entry): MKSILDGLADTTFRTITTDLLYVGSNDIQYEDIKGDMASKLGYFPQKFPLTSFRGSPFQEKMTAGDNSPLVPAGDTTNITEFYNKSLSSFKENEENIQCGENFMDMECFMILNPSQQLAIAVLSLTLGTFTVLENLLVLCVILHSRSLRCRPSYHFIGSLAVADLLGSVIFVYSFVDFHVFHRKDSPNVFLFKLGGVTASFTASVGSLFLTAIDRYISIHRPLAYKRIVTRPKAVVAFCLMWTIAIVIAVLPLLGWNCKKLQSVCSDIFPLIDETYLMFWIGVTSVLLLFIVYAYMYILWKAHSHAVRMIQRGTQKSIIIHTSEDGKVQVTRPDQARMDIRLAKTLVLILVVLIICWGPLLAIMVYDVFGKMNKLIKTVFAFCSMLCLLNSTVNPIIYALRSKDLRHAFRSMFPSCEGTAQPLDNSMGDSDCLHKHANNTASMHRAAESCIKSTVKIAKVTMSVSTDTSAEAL

[7] = Subchronic OEA administration in rats (7 days): food intake, body weight, water intake; type: in vivo, rat; settings: 5 mg per kg i.p. daily for seven days
Description: as §1
In this example, OEA was subchronically administered to rats.

[8] = tested on: Soleus muscle; test: [14C]oleate oxidation to CO2 in soleus muscle; type: cell-based, rat; settings: 10 μM, 30 min incubation
Description: This example illustrates the effect of OEA on fat metabolism and methods for studying the same. Oleoylethanolamide (OEA) decreases body weight not only by suppressing appetite, but also by possibly enhancing body fat catabolism. The effects of OEA on fatty acid oxidation in major body-fat burning tissues (soleus muscle, liver, cultured cardiac myocytes and astrocytes) was examined. […] In addition, OEA induces a significant mobilization of triacylglycerol stores from primary white adipose tissue cells. Table 4 details the methods and effects of OEA on fatty acid oxidation in these cells. Structure-activity relationship experiments provide evidence that the effect of OEA on skeletal muscle fatty acid oxidation is specific (FIG. 8).

[9] = target: T2, human PPARδ (Homo sapiens, UniProt Q03181); test: GAL4 chimeric receptor transactivation assay in HeLa cells, PPARδ; type: cell-based; settings: read-out: EC50 for PPARβ activation
T2 construct: expressed in transfected cells; host or cells: HeLa (clonal reporter line HLR, stably transfected with pFA-PPARδ)
T2 sequence (Q03181 211-439 limits assumed): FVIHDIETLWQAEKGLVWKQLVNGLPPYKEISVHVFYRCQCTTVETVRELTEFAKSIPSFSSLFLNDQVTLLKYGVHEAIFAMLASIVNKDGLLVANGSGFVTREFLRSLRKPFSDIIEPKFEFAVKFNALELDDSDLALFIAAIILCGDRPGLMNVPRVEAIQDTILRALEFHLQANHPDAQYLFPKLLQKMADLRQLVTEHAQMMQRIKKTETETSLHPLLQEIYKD
Description: Eighteen hours following transfection, the culture media was replaced with supplemented DMEM containing hygromycin (100 μg-ml^−1, Calbiochem). After 4 weeks in culture, the surviving clones were isolated and analyzed by luciferase assay. […] The cells were cultured in supplemented DMEM containing hygromycin and G418. For transactivation assays, cells were seeded in 6-well plates (50,000 cells per well) and incubated for 7 hours in supplemented DMEM containing hygromycin and G418, plus appropriate concentrations of test compounds. Dual-luciferase reporter assay system (Promega) and an MLX Microtiter® plate luminometer (Dynex) were used to determine luciferase activity in cell lysates.

Structure (SMILES): CCCCCCCC/C=C\CCCCCCCC(=O)NCCO [OEA, Z-2-hydroxyethyl octadec-9-enamide]
- activity of the hypothalamus-pituitary-adrenal (HPA) axis [1]: did not alter
- operant responses for food [2]: reduced
- iNOS expression [3]: significantly decreased
- food intake 60 min ([4]; OEA 0.4 μg per animal i.c.v.): 4.8 ± 0.4
- food intake 120 min ([4]; OEA 0.4 μg per animal i.c.v.): 6.6 ± 0.4
- food intake 240 min ([4]; OEA 0.4 μg per animal i.c.v.): 8.4 ± 0.4
- food intake 60 min ([4]; OEA 2 μg per animal i.c.v.): 4.9 ± 0.4
- food intake 120 min ([4]; OEA 2 μg per animal i.c.v.): 6.6 ± 0.6
- food intake 240 min ([4]; OEA 2 μg per animal i.c.v.): 8.7 ± 0.5
- food intake 60 min ([4]; OEA 10 μg per animal i.c.v.): 5.9 ± 0.2
- food intake 120 min ([4]; OEA 10 μg per animal i.c.v.): 8.1 ± 0.4
- food intake 240 min ([4]; OEA 10 μg per animal i.c.v.): 9.6 ± 0.7
- effect on food intake after direct injection into the brain ventricles ([4]; i.c.v.): ineffective
- conditioned taste aversion [5]: little effect
- displacement of cannabinoid binding [6]: did not displace
- cumulative food intake [7]: small, but significant decrease
- water intake [7]: did not affect
- weight gain [7]: profound inhibition of weight gain
- Stimulatory effect of 10 μM OEA on [14C]oleate oxidation to CO2 [8]: 36 ± 10 (n = 4) %
- EC50 [9]: 1100 ± 100 nM
